Measurements reported in ChEMBL document CHEMBL5053484, “Structure-Based Identification of Potent Lysine-Specific Demethylase 1 Inhibitor Peptides and Temporary Cyclization to Enhance Proteolytic Stability and Cell Growth-Inhibitory Activity” (J Med Chem, 2021).
Residues, ends and D or L forms follow the SMILES beside them.

How the values were obtained:
[1] = system: WI-38; assay: Antiproliferative activity against human WI-38 cells after 72 hrs by alamarBlue assay; assay type: cell-based; conditions: WI-38, 72 h
[2] = system: HL-60; assay: cells; conditions: Homo sapiens, HL-60, 72 h
Description: Antiproliferative activity against human HL-60 cells measured after 72 hrs by alamarBlue assay

[3] = target: LSD1/CoREST complex (Homo sapiens, UniProt O60341); assay: Inhibition of human LSD1/CoREST; assay type: protein-complex assay

Row | IC50 [2] [µM] | Ki [3] [µM] | SMILES | IC50 [1] [µM]
1 | 17 |  | CC(C)C[C@@H]1NC(=O)[C@H](Cc2ccccc2)NC(=O)[C@H](CO)NC(=O)[C@H](CCCNC(=N)N)NC(=O)[C@@H]2CCCN2C(=O)OCCOCCn2cc(nn2)COc2cc(cc(C(=O)N[C@@H](CCCNC(=N)N)C(=O)N[C@@H](CCCNC(=N)N)C(=O)N[C@@H](CCCNC(=N)N)C(=O)N[C@@H](CCCNC(=N)N)C(=O)N[C@@H](CCCNC(=N)N)C(=O)N[C@@H](CCCNC(=N)N)C(=O)N[C@@H](CCCNC(=N)N)C(=O)N[C@@H](CCCNC(=N)N)C(=O)N[C@@H](CCCNC(=N)N)C(=O)N[C@@H](CCCNC(=N)N)C(N)=O)c2)OCc2cn(nn2)CCOCCOC(=O)NCCCC[C@@H](C(N)=O)NC(=O)[C@H](CCCNC(=N)N)NC(=O)[C@H](CCCNC(=N)N)NC(=O)[C@H](C(C)C)NC1=O | > 100
2 | 5.2 |  | CC(C)C[C@@H]1NC(=O)[C@H](Cc2ccccc2)NC(=O)[C@H](CO)NC(=O)[C@H](CCCNC(=N)N)NC(=O)[C@@H]2CCCN2C(=O)OCCSSCCn2cc(nn2)COc2cc(cc(C(=O)N[C@@H](CCCNC(=N)N)C(=O)N[C@@H](CCCNC(=N)N)C(=O)N[C@@H](CCCNC(=N)N)C(=O)N[C@@H](CCCNC(=N)N)C(=O)N[C@@H](CCCNC(=N)N)C(=O)N[C@@H](CCCNC(=N)N)C(=O)N[C@@H](CCCNC(=N)N)C(=O)N[C@@H](CCCNC(=N)N)C(=O)N[C@@H](CCCNC(=N)N)C(=O)N[C@@H](CCCNC(=N)N)C(N)=O)c2)OCc2cn(nn2)CCSSCCOC(=O)NCCCC[C@@H](C(N)=O)NC(=O)[C@H](CCCNC(=N)N)NC(=O)[C@H](CCCNC(=N)N)NC(=O)[C@H](C(C)C)NC1=O | 41
3 | > 100 |  | CC(C)C[C@H](NC(=O)[C@H](Cc1ccccc1)NC(=O)[C@H](CO)NC(=O)[C@H](CCCNC(=N)N)NC(=O)[C@@H]1CCCN1)C(=O)N[C@H](C(=O)N[C@@H](CCCNC(=N)N)C(=O)N[C@@H](CCCNC(=N)N)C(=O)N[C@@H](CCCCN)C(=O)O)C(C)C (H-PRSFLVRRK-OH) | > 100
4 | > 100 | 0.17 | N=C(N)NCCC[C@H](NC(=O)[C@H](CCCNC(=N)N)NC(=O)[C@H](CCCNC(=N)N)NC(=O)[C@H](CCCNC(=N)N)NC(=O)[C@H](CCCNC(=N)N)NC(=O)[C@H](CCCNC(=N)N)NC(=O)[C@H](CCCNC(=N)N)NC(=O)[C@H](CCCNC(=N)N)NC(=O)[C@H](CCCNC(=N)N)NC(=O)[C@H](CCCNC(=N)N)NC(=O)c1cc(OCc2cn(CCO)nn2)cc(OCc2cn(CCO)nn2)c1)C(N)=O | 
5 |  |  | CN1CCN(C(=O)CNC2CC2c2cc(F)cc(F)c2OCc2ccccc2)CC1 (centres undefined) | > 50
